Experimental data as given in ChEMBL document CHEMBL3400063, “Novel pyrrole carboxamide inhibitors of JAK2 as potential treatment of myeloproliferative disorders” (Bioorg Med Chem, 2015).
Converted amounts (≈) assume the structure as drawn. Each block holds one compound with its values, some of them ahead of it. The source made the active and inactive calls. The rule behind the calls is not given here.

Key:
[1] = molecular target: Tyrosine-protein kinase JAK2 (Homo sapiens, UniProt O60674); test: Inhibition of recombinant epitope-tagged JAK2 (808 to 1132) (unknown origin) using LPLDKDYYVVREPGQ as substrate by beta-countiing analysis in presence of 33P-gamma-ATP
Tyrosine-protein kinase JAK2, sequence (O60674 whole entry): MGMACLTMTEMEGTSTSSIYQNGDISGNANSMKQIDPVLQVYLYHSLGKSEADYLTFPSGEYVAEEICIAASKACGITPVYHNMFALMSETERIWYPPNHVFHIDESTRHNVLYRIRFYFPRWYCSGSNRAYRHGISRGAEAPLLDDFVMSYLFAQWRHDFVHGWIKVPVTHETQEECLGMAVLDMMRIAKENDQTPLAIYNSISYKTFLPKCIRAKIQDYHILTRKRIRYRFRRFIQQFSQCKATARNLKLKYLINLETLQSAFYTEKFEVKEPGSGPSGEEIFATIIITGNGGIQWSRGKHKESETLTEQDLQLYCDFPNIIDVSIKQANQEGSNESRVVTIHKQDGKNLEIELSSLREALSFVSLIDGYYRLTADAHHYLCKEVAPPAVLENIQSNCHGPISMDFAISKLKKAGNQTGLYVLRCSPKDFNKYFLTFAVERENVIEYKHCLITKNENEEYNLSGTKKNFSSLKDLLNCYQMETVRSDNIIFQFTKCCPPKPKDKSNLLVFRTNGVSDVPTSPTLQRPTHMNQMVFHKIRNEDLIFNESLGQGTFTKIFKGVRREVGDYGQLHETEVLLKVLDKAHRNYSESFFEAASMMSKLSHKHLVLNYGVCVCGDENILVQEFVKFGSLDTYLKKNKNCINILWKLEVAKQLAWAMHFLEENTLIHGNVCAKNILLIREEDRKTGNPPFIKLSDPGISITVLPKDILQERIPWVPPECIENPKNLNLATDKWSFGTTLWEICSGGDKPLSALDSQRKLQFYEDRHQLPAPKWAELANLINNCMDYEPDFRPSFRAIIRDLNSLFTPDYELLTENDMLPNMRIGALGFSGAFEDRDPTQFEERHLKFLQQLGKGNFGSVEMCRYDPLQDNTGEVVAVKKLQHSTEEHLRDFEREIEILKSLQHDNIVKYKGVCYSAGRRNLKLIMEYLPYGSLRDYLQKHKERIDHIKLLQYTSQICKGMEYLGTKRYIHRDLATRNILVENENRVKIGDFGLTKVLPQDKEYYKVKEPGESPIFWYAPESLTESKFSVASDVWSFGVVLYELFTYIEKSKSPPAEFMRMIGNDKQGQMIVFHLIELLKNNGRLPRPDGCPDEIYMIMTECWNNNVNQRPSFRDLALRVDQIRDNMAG

[2] = organism: Homo sapiens; test: Selectivity ratio of IC50 for recombinant epitope-tagged JAK1 (861 to 1152) (unknown origin) to IC50 for recombinant epitope-tagged JAK2 (808 to 1132) (unknown origin)
[3] = organism: Homo sapiens; test: Selectivity ratio of IC50 for recombinant epitope-tagged JAK3 (781 to 1124) (unknown origin) to IC50 for recombinant epitope-tagged JAK2 (808 to 1132) (unknown origin)
[4] = Cytotoxicity against human SET2 cells expressing JAK2 assessed as growth inhibition after 72 hrs by Cell Titre-Glo assay; format: functional, cell-based; conditions: SET-2, 72 h
[5] = Cytotoxicity against human DERL7 cells expressing JAK1/3 assessed as growth inhibition after 72 hrs by Cell Titre-Glo assay; format: functional, cell-based; conditions: DERL7, 72 h
[6] = tested on: A2780; test: Cytotoxicity against human A2780 cells expressing […] assessed as growth inhibition after 72 hrs by Cell Titre-Glo assay; format: functional, cell-based; conditions: A2780, 72 h
[7] = Solubility of the compound at pH 7; format: physicochemical; conditions: buffer
[8] = Cmax in Balb nu/nu mouse at 10 mg/kg, iv by LC/MS/MS analysis; format: ADME, organism-based; parameters: dose 10 mg/kg, route intravenous; conditions: in vivo
[9] = AUC (infinity) in Balb nu/nu mouse at 10 mg/kg, iv by LC/MS/MS analysis; format: ADME, organism-based; parameters: time infinity, dose 10 mg/kg, route intravenous; conditions: plasma
[10] = Clearance in Balb nu/nu mouse at 10 mg/kg, iv by LC/MS/MS analysis; format: ADME, organism-based; parameters: dose 10 mg/kg, route intravenous; conditions: in vivo
[11] = Volume of distribution at steady state in Balb nu/nu mouse at 10 mg/kg, iv by LC/MS/MS analysis; format: ADME, organism-based; parameters: dose 10 mg/kg, route intravenous; conditions: in vivo, read-out: Vdss
[12] = Half life in Balb nu/nu mouse at 10 mg/kg, iv by LC/MS/MS analysis; format: ADME, organism-based; parameters: dose 10 mg/kg, route intravenous; conditions: in vivo
[13] = Cmax in Balb nu/nu mouse at 10 mg/kg, po by LC/MS/MS analysis; format: ADME, organism-based; parameters: dose 10 mg/kg, route oral; conditions: in vivo
[14] = AUC (infinity) in Balb nu/nu mouse at 10 mg/kg, po by LC/MS/MS analysis; format: ADME, organism-based; parameters: dose 10 mg/kg, route oral, time infinity; conditions: plasma
[15] = Half life in Balb nu/nu mouse at 10 mg/kg, po by LC/MS/MS analysis; format: ADME, organism-based; parameters: dose 10 mg/kg, route oral; conditions: in vivo
[16] = Oral bioavailability in Balb nu/nu mouse at 10 mg/kg by LC/MS/MS analysis; format: ADME, organism-based; conditions: in vivo
[17] = molecular target: Tyrosine-protein kinase JAK1 (Homo sapiens) (UniProt P23458); test: Inhibition of JAK1 in human DERL7 cells assessed as inhibition of STAT5 phosphorylation after 2 hrs by SDS-PAGE analysis in presence of human IL-2; format: cell-based
Tyrosine-protein kinase JAK1 (Homo sapiens), sequence (P23458 whole entry): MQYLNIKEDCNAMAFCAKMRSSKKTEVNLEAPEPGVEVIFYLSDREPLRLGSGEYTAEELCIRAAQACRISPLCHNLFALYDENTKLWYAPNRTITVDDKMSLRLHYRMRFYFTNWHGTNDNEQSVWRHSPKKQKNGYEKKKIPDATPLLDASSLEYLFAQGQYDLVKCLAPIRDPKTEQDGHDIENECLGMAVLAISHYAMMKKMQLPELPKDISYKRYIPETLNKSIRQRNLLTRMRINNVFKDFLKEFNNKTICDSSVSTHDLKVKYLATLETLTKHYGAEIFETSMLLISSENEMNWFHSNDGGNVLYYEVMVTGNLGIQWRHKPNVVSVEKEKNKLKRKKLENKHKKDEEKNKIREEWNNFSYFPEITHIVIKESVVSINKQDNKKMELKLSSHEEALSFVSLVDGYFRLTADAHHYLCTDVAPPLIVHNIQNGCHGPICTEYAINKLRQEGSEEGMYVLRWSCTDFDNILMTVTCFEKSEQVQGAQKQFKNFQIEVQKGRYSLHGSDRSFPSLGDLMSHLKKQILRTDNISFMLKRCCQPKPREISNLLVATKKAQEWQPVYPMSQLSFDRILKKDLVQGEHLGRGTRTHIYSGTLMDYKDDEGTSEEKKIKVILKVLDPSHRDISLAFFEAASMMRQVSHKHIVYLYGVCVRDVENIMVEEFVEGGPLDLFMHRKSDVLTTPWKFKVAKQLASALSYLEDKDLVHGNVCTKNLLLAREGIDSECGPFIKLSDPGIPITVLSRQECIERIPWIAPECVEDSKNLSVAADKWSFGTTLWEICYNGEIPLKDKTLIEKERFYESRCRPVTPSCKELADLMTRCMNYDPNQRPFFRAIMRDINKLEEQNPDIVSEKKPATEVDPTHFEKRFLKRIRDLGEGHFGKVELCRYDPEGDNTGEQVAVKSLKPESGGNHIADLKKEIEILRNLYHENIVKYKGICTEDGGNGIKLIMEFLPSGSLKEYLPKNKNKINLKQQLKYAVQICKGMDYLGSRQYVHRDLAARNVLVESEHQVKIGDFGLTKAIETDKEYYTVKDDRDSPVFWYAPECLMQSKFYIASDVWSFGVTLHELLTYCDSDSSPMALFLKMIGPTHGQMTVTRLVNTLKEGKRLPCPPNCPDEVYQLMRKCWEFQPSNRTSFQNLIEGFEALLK

[18] = molecular target: T1, Tyrosine-protein kinase JAK3 (Homo sapiens) (UniProt P52333); test: Inhibition of JAK3 in human DERL7 cells assessed as inhibition of STAT5 phosphorylation after 2 hrs by SDS-PAGE analysis in presence of human IL-2; format: cell-based
T1 sequence (whole entry): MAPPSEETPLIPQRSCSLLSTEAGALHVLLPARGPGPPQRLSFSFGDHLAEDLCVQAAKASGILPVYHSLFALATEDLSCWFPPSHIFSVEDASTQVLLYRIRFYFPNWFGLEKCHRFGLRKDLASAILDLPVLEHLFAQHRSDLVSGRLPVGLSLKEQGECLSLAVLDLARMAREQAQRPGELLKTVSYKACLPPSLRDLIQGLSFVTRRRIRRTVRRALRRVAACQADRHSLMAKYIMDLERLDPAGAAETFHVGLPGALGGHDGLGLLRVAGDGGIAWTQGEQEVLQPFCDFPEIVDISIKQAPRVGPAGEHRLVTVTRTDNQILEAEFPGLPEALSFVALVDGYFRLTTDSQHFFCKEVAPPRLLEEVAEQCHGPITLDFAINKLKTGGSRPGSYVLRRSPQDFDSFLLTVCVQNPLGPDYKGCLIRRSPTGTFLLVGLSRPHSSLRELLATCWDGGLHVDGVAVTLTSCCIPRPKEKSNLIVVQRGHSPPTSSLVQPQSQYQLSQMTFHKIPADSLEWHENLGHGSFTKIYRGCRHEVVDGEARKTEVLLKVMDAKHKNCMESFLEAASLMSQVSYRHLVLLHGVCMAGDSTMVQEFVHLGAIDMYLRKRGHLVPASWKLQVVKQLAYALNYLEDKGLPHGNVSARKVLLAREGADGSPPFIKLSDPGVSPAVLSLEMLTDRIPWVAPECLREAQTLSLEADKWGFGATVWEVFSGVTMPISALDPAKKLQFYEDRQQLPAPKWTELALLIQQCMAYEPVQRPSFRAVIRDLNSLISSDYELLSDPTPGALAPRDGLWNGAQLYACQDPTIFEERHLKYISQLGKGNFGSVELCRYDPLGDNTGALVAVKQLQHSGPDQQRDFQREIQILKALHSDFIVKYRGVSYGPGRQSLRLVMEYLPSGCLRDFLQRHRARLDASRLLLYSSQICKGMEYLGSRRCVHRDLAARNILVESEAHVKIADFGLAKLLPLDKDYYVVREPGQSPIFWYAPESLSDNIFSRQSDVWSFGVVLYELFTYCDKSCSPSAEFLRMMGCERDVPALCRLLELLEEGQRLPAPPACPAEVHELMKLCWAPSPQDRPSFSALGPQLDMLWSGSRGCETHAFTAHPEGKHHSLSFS

[19] = Antitumor activity against human SET2 cells xenografted in SCID mouse assessed as tumor growth inhibition at 50 mg/kg, po bid for 10 days relative to control; format: functional; conditions: SET-2, 240 h, read-out: TGI
[20] = tested on: Mus musculus; test: Toxicity in SCID mouse xenografted with human SET2 cells assessed as body weight loss at 50 mg/kg, po bid for 10 days; format: organism-based; parameters: dose 50 mg/kg, route oral; conditions: in vivo, 240 h
[21] = tested on: Mus musculus; test: In vivo inhibition of JAK2 in SCID mouse xenografted with human SET2 cells assessed as inhibition of STAT5 phosphorylation at 50 mg/kg, po up to 6 hrs; format: functional, organism-based; parameters: dose 50 mg/kg
[22] = tested on: Mus musculus; test: In vivo inhibition of JAK2 in SCID mouse xenografted with human SET2 cells assessed as inhibition of STAT5 phosphorylation at 50 mg/kg, po after 3 hrs; format: functional, organism-based; parameters: dose 50 mg/kg
[23] = tested on: Mus musculus; test: In vivo inhibition of JAK2 in SCID mouse xenografted with human SET2 cells assessed as total STAT5 level at 50 mg/kg, po up to 6 hrs; format: functional, organism-based; parameters: dose 50 mg/kg
[24] = tested on: Mus musculus; test: In vivo inhibition of JAK2 in SCID mouse xenografted with human SET2 cells assessed as total STAT5 level at 50 mg/kg, po after 3 hrs; format: functional, organism-based; parameters: dose 50 mg/kg

Compound: Cc1ccc(Cl)cc1-c1ncc(-c2ccnc(N)n2)[nH]1
IC50 [1]: 1070 nM

Compound: Cc1ccc(Cl)cc1-n1nc(-c2ccnc(N)n2)cc1C(N)=O
IC50 [1]: > 10000 nM

Compound: CCc1ccc(Cl)cc1-n1cc(-c2cc(NC)ncn2)cc1C(N)=O
Ratio IC50 [2]: 9
Ratio IC50 [3]: 11
IC50 [4]: 500 nM
IC50 [5]: 1720 nM
IC50 [6]: > 10000 nM
solubility [7]: 111 µM (≈ 39.5 µg/mL)
Cmax [8]: 32 µM
AUC(0-inf) [9]: 37.4 µM·h
clearance [10]: 12 mL/min/kg
Vd [11]: 1.4 L/kg
half-life [12]: 5.4 h
Cmax [13]: 1.6 µM
AUC(0-inf) [14]: 2.9 µM·h
half-life [15]: 2.4 h
bioavailability [16]: 9%

Compound: Cc1ccc(Cl)cc1-c1[nH]c(-c2ccnc(N)n2)cc1C(N)=O
IC50 [4]: 430 nM
IC50 [5]: 740 nM

Compound: Cc1ccc(Cl)cc1-n1cc(-c2ccnc(N)n2)cc1C(N)=O
IC50 [1]: 216 nM

Compound: Cc1ccc(Cl)cc1-c1ccc(-c2ccnc(N)n2)[nH]1
IC50 [1]: 972 nM

Compound: Cc1ccc(Cl)cc1-n1cc(-c2ncnn3cccc23)cc1C(N)=O
IC50 [4]: 1920 nM

Compound: NC(=O)c1cc(-c2cc(N)ncn2)cn1-c1cc(C(F)(F)F)ccc1Cl
IC50 [4]: 1570 nM

Compound: CCc1ccc(Cl)cc1-n1cc(-c2ncnc3[nH]ccc23)cc1C(N)=O
IC50 [4]: 30 nM
IC50 [5]: 20 nM
IC50 [6]: > 5000 nM

Compound: CNc1cc(-n2cc(C(N)=O)c(-c3cc(Cl)ccc3C)c2)ncn1
IC50 [1]: 620 nM

Compound: NC(=O)c1cc(-c2ncnc3[nH]ccc23)cn1-c1cc(C(F)(F)F)ccc1Cl
Ratio IC50 [2]: 4
Ratio IC50 [3]: 4
IC50 [4]: 60 nM
IC50 [5]: 150 nM
IC50 [6]: > 10000 nM

Compound: CCc1ccc(Cl)cc1-n1cc(-c2cc(N)ncn2)cc1C(N)=O
IC50 [5]: 2730 nM
solubility [7]: 128 µM (≈ 43.8 µg/mL)
Cmax [8]: 45.9 µM
AUC(0-inf) [9]: 49.2 µM·h
clearance [10]: 8.3 mL/min/kg
Vd [11]: 0.6 L/kg
half-life [12]: 2 h
Cmax [13]: 12.5 µM
AUC(0-inf) [14]: 21 µM·h
half-life [15]: 2.6 h
bioavailability [16]: 50%
inhibition [17]: Active
inhibition [18]: Active
inhibition in vivo at 50 mg/kg [19]: 41%
Activity [20]: Non-toxic
inhibition [21]: Active
inhibition [22]: Active
inhibition [23]: inactive
inhibition [24]: inactive

Compound: CNc1cc(-c2cc(C(N)=O)n(-c3cc(Cl)ccc3C)c2)ncn1
IC50 [1]: 131 nM

Further lines, with some results ahead:

IC50 [1]: 3 nM
Ratio IC50 [2]: 6
Ratio IC50 [3]: 7
Compound: CCc1ccc(Cl)cc1-c1cc(-c2ncnc3[nH]ccc23)[nH]c1C(N)=O
IC50 [4]: 320 nM
IC50 [5]: 1100 nM
IC50 [6]: 1600 nM

IC50 [1]: 2910 nM
Compound: Cc1ccc(Cl)cc1-c1cn(-c2ncnn3cccc23)cc1C(N)=O

IC50 [1]: 9 nM
Ratio IC50 [2]: 5
Ratio IC50 [3]: 6
solubility [7]: 3 µM (≈ 1.06 µg/mL)
Compound: Cc1ccc(Cl)cc1-c1cc(-c2ncnc3[nH]ccc23)[nH]c1C(N)=O
IC50 [4]: 460 nM
IC50 [5]: 7300 nM
IC50 [6]: 9400 nM

IC50 [1]: 220 nM
Compound: Cc1ccc(Cl)cc1-c1cn(-c2ccnc(N)n2)cc1C(N)=O

Ratio IC50 [2]: 7
Ratio IC50 [3]: 15
solubility [7]: 25 µM (≈ 9.15 µg/mL)
Cmax [8]: 12.4 µM
AUC(0-inf) [9]: 8.4 µM·h
clearance [10]: 51 mL/min/kg
Vd [11]: 5.8 L/kg
half-life [12]: 5.5 h
Cmax [13]: 0.04 µM
AUC(0-inf) [14]: 0.07 µM·h
half-life [15]: 3.7 h
bioavailability [16]: 1%
Compound: CCc1ccc(Cl)cc1-n1cc(-c2ncnn3cccc23)cc1C(N)=O
IC50 [4]: 660 nM
IC50 [5]: 2140 nM
IC50 [6]: > 10000 nM

IC50 [1]: 369 nM
Compound: Cc1ccc(Cl)cc1-c1cn(-c2cc(N)ncn2)cc1C(N)=O

IC50 [1]: 690 nM
Compound: Cc1ccc(Cl)cc1-c1cc(-c2cc(N)ncn2)[nH]c1C(N)=O

Ratio IC50 [2]: 3
Ratio IC50 [3]: 5
solubility [7]: 40 µM (≈ 14.1 µg/mL)
Cmax [8]: 51 µM
AUC(0-inf) [9]: 26.2 µM·h
clearance [10]: 17 mL/min/kg
Vd [11]: 0.7 L/kg
half-life [12]: 5 h
Cmax [13]: 0.69 µM
AUC(0-inf) [14]: 1.6 µM·h
half-life [15]: 3 h
bioavailability [16]: 8%
Compound: Cc1ccc(Cl)cc1-n1cc(-c2ncnc3[nH]ccc23)cc1C(N)=O
IC50 [4]: 80 nM
IC50 [5]: 460 nM
IC50 [6]: 7400 nM

IC50 [1]: 16 nM
Ratio IC50 [2]: 5
Ratio IC50 [3]: 14
solubility [7]: 2 µM (≈ 0.704 µg/mL)
Compound: Cc1ccc(Cl)cc1-c1cn(-c2ncnc3[nH]ccc23)cc1C(N)=O
IC50 [4]: 500 nM
IC50 [5]: > 10000 nM
IC50 [6]: > 10000 nM

IC50 [1]: 950 nM
Compound: Cc1ccc(Cl)cc1-n1cc(-c2ccnc(N)n2)cn1

IC50 [1]: 331 nM
Compound: CNc1cc(-c2cc(C(N)=O)n(-c3cc(C(F)(F)F)ccc3Cl)c2)ncn1
